Read-outs that look alike come from different tables or passages of the source.

DC50 and Dmax data for twelve molecules are collected here from patent US12559506B2, “Indazole based compounds and associated methods of use” (Arvinas Operations, Inc., priority 2021, dated 2026).

The target of assay [1] is T1, G2019S LRRK2 (Homo sapiens, UniProt Q5S007, G2019S).
T1 construct: expressed in transfected cells; host or cells: HEK293 (ATCC CRL-1573), transient transfection, mammalian expression vector with ubiquitin promoter
T1 sequence (Q5S007 whole entry G2019S): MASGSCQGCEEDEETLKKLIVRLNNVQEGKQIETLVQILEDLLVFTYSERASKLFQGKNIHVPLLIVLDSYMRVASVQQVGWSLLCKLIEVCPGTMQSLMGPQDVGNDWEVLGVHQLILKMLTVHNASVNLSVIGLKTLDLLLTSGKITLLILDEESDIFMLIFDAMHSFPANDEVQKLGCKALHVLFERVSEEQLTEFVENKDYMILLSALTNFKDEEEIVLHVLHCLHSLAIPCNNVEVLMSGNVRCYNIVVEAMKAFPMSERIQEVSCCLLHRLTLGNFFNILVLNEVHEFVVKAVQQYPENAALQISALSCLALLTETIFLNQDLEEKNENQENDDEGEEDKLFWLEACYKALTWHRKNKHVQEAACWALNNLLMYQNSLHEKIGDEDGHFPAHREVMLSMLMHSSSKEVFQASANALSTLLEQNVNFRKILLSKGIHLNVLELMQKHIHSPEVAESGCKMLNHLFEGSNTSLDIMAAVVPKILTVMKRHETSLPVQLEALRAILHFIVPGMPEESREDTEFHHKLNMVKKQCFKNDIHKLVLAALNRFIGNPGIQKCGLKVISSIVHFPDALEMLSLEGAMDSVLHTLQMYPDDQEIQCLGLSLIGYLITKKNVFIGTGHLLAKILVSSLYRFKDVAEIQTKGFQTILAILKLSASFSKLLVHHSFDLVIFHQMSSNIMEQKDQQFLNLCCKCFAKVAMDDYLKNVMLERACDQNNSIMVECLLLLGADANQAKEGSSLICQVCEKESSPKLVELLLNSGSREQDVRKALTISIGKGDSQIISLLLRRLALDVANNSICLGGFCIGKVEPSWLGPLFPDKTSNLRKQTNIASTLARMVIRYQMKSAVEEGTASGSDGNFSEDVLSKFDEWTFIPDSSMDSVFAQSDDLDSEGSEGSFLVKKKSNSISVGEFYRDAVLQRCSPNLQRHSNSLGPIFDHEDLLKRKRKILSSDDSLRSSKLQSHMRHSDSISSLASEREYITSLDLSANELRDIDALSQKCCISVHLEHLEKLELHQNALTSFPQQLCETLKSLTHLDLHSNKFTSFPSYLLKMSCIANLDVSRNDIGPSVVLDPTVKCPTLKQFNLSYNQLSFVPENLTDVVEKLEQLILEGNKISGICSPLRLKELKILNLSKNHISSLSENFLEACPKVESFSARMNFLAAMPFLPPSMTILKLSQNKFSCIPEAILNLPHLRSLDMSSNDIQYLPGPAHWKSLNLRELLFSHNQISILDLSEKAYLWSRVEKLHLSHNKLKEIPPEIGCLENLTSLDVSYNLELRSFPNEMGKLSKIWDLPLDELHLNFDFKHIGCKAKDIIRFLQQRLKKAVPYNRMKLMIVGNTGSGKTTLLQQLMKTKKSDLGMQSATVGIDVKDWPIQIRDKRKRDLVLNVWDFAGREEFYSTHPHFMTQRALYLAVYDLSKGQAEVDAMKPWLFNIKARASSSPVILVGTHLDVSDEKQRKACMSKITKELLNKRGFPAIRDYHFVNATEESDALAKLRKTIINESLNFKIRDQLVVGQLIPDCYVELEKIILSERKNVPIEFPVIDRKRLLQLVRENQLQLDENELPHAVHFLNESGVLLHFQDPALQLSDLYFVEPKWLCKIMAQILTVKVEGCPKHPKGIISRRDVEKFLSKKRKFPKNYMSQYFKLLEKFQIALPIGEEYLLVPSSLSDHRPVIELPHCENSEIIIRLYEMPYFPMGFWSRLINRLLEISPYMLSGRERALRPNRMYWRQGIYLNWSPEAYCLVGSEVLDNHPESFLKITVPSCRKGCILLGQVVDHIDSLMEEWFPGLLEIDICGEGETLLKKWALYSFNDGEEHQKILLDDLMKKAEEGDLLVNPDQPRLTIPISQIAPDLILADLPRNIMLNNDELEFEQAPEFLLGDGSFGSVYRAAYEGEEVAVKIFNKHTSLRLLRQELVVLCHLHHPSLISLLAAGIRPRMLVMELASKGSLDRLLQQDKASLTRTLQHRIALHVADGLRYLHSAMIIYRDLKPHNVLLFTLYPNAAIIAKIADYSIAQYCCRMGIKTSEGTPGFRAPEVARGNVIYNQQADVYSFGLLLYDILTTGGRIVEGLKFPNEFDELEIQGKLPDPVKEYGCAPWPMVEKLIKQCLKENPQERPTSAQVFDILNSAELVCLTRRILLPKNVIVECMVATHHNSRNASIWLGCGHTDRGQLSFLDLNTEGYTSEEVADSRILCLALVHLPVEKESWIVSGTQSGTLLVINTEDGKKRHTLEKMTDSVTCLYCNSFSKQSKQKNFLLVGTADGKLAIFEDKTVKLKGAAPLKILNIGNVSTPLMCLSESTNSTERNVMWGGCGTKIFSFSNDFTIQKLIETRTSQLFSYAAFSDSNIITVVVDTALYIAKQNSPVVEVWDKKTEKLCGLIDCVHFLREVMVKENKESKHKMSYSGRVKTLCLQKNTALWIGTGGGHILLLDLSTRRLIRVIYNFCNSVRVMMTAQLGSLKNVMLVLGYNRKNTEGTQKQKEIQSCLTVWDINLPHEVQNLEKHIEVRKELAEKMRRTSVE
In words: LRRK2 degradation assay, HiBit-tagged G2019S LRRK2 expressed from plasmid in HEK293 cells (Nano-Glo Dual-Luciferase). The class given is cell-based. The settings on record: 24 hours. The source says:
(§1) Exemplary Assay for Testing LRRK2 Degradation Driven by Exemplary Hetero-Bifunctional Compounds Designed to Target LRRK2
(§2) The assay measures the degradation of wildtype and G2019S LRRK2 tagged with a HiBit tag on the C-terminus of the protein that was expressed from a mammalian expression vector, driven by the ubiquitin promoter in HEK293 cells. Each compound dose-response was repeated on two separate days, on three separate plates each day.
(§3) Plasmid Preparation. Transfection mixes were assembled as follows and incubated for 30 minutes at room temperature. In a 15 mL tube, 5.25 mL Opti-MEM (no additions) was mixed with 17 μL Firefly Luciferase plasmid at 1 μg/μL and 158 μL WT plasmid DNA at 1 μg/μL (175 μg total DNA) were mixed by flicking. In a new 15 mL tube, 5.25 mL OptiMEM was mixed with 17 μL Firefly Luciferase plasmid at 1 μg/μL and 158 μL G2019S plasmid DNA at 1 μg/μL (175 μg total DNA) were mixed by flicking. X-tremeGene HP was mixed thoroughly using a vortex. Next, 175 μL was added to each tube and flicked to mix. Both tubes were left to incubate for 30 minutes at room temperature.
(§4) While the transfection mixes were incubating, HEK293 cells (acquired from ATCC; ATCC CRL-1573) were harvested with trypsin. Once cells are detached, the cells were resuspended in 12 mL OptiMEM+5% FBS and transferred to a 50 mL tube. The cells were mixed well and counted. Using OptiMEM+5% FBS, the cells were diluted in two 250 mL conical tubes at 0.71×10^6 cells/mL in 70 mL. One tube was labeled “WT” and the other “G2019S”. The WT and G2019S transfection mixes were added dropwise to the corresponding 250 mL tubes. The tubes were mixed first by pipetting then by swirling. The tubes were incubated at room temperature for at least 5 minutes.
(§5) Each tube was swirled before dispensing and after every three plates. Seventy microliters of cells were dispensed with WT or G2019S DNA to seven plates each. Three plates of each were tested with compound plate one (preparation described below) and three plates of each were tested with compound plate two (preparation described below). The first plate from each set served as a “prime” plate and was not used to test compounds. Each plate was incubated in the hood for 10 minutes before placing in the 37° C. incubator for 24 hours.
(§6) Preparation of Compound and Assay Plates. Two compound plates were made using 96 well polypropylene plates. Compounds were made up at 10 mM and were diluted to 1 mM in 30 μL. Each dose response curve included a well of DMSO, as a negative control and for normalization, and a well of 0.5 μM of Compound 4 as a positive control. In addition to seven test compounds, each plate also included a dose response of Compound 4. The compound plates were spun down along at 1200 rpm for 2 minutes.
(§7) The two compound plates were then mixed and 2 μL was diluted in intermediate plates having 248 μL of Opti-Mem in each well. Next, 10 μL diluted compounds from the intermediate plates were added to each test plate (three WT and three G2019S plates per compound plate for a total of 12 assay plates). The plates were incubated for 24 hours at 37° C.
(§8) All assay plates and all Nano-Glo Dual-Luciferase Reporter Assay System components (except for the DLR substrate) were equilibrated to room temperature. Next, the luciferase buffer was mixed with the lyophilized amber bottle until fully dissolved, and 75 μL of the luciferase mixture was added to each well of each assay plate. The assay plates were incubated for 10 minutes at room temperature with shaking for at least 5 minutes, and then read on a plate reader.
(§9) Developing Plates and Analyzing Data. One milliliter of DLR substrate and 1 mL LgBiT Protein were added to the Stop and Glo buffer, and 75 μL of the mixture was added to each well of each plate. Optically clear seals were added to each plate and each plate was incubated for 20 minutes with shaking for at least 10 minutes, and then read on a plate reader. […]

The target in assay [2] is T2, wildtype LRRK2 (Homo sapiens, UniProt Q5S007).
T2 construct: expressed in transfected cells; host or cells: HEK293 (ATCC CRL-1573), transient transfection, mammalian expression vector with ubiquitin promoter
T2 sequence (Q5S007 whole entry): as the sequence (Q5S007 whole entry G2019S) above, with S2019G counted along it
In words: LRRK2 degradation assay, HiBit-tagged wildtype LRRK2 expressed from plasmid in HEK293 cells (Nano-Glo Dual-Luciferase). The settings on record: 24 hours; for Dmax: read-out: **WT Dmax (%); for DC50: read-out: *WT DC50. In kind it is cell-based.
Excerpt: as §1, §2, §3, §4, §5, §6, §7, §8, §9

The mark [3] stands for this setting: HiBit-tagged G2019S LRRK2 in HEK293 cells.
Setting [4] is: HiBit-tagged wildtype LRRK2 in HEK293 cells.
Setting [5] is: HiBit-tagged G2019S LRRK2, HEK293 cells.
The mark [6] stands for this setting: HiBit-tagged wildtype LRRK2, HEK293 cells.

`CC1(Oc2ccc3[nH]nc(-c4cc(N5CCO[C@H](CN6CCC(OC7CCN(c8ccc9c(c8)C(=O)N(C8CCC(=O)NC8=O)C9=O)CC7)CC6)C5)ncn4)c3c2)CC1` (stereo partly drawn) [Compound 150, 2-(2,6-dioxopiperidin-3-yl)-5-{4-[(1-{[(2R)-4-{6-[5-(1-methylcyclopropoxy)-1H-indazol-3-yl]pyrimidin-4-yl}morpholin-2-yl]methyl}piperidin-4-yl)oxy]piperidin-1-yl}-2,3-dihydro-1H-isoindole-1,3-dione]: in assay [1] (setting [3]), the DC50 was below 10 nM and the greatest degradation seen (Dmax) was in the range of 50 to 70%. Moreover, in assay [2] (setting [4]), the maximal degradation (Dmax) lay within 50 to 70% and the 50% degradation concentration (DC50) is below 10 nM.
In assay [1] (setting [5]), `CC1(Oc2ccc3[nH]nc(-c4ccnc(N5CC6(CCN6CC6CCN(CC7CCN(c8ccc9c(c8)C(=O)N(C8CCC(=O)NC8=O)C9=O)CC7)CC6)C5)c4)c3c2)CC1` (centres unmarked) [Compound 163, 2-(2,6-dioxo-3-piperidyl)-5-[4-[[4-[[6-[4-[5-(1-methylcyclopropoxy)-1H-indazol-3-yl]-2-pyridyl]-1,6-diazaspiro[3.3]heptan-1-yl]methyl]-1-piperidyl]methyl]-1-piperidyl]isoindoline-1,3-dione] showed a DC50 of 10 to 50 nM and a Dmax below 50%. Moreover, in assay [2] (setting [6]), the maximal degradation (Dmax) is below 50% and the DC50 lay within 10 to 50 nM.
Take `CC1(Oc2ccc3[nH]nc(-c4cc(N5CCC(CN6CC7(CCN7CC7CCN(c8ccc9c(c8)C(=O)N(C8CCC(=O)NC8=O)C9=O)CC7)C6)CC5)ncn4)c3c2)CC1` (centres unmarked) [Compound 176, 2-(2,6-dioxo-3-piperidyl)-5-[4-[[6-[[1-[6-[5-(1-methylcyclopropoxy)-1H-indazol-3-yl]pyrimidin-4-yl]-4-piperidyl]methyl]-1,6-diazaspiro[3.3]heptan-1-yl]methyl]-1-piperidyl]isoindoline-1,3-dione]: the half-maximal degradation concentration (DC50) in assay [1] (setting [5]) and in assay [2] (setting [6]) was below 10 nM throughout. The figures for the Dmax in assay [1] (setting [5]) and in assay [2] (setting [6]) were below 50% and 50 to 70%, respectively.
In assay [1] (setting [3]), `C[C@H]1CN(c2cc(-c3n[nH]c4ccc(OC5(C)CC5)cc34)ncn2)CCN1CC1CCN(CCCNc2cccc3c2CN(C2CCC(=O)NC2=O)C3=O)CC1` (stereo partly drawn) [Compound 142, 3-[4-[3-[4-[[(2S)-2-methyl-4-[6-[5-(1-methylcyclopropoxy)-1H-indazol-3-yl]pyrimidin-4-yl]piperazin-1-yl]methyl]-1-piperidyl]propylamino]-1-oxo-isoindolin-2-yl]piperidine-2,6-dione] displayed a DC50 of 10 to 50 nM and a Dmax below 50%. In addition, in assay [2] (setting [4]), the Dmax is below 50% and the DC50 was 50 to 100 nM.
As to `CC1(Oc2ccc3n[nH]c(-c4cc(N5CCN(CC6CC7(CCN(CC8CCN(c9ccc%10c(c9)C(=O)N(C9CCC(=O)NC9=O)C%10=O)CC8)CC7)C6)CC5)ncn4)c3c2)CC1` (centres unmarked) [Compound 177, 2-(2,6-dioxo-3-piperidyl)-5-[4-[[2-[[4-[6-[5-(1-methylcyclopropoxy)-2H-indazol-3-yl]pyrimidin-4-yl]piperazin-1-yl]methyl]-7-azaspiro[3.5]nonan-7-yl]methyl]-1-piperidyl]isoindoline-1,3-dione], the DC50 in assay [1] (setting [5]) and in assay [2] (setting [6]) was 10 to 50 nM each time. Besides, the maximal degradation (Dmax) in assay [1] (setting [5]) and in assay [2] (setting [6]) was 50 to 70% throughout.
With `CC1(Oc2ccc3n[nH]c(-c4cc(N5CCC(Cc6cccc(CC7CCN(c8ccc9c(c8)C(=O)N(C8CCC(=O)NC8=O)C9=O)CC7)c6)CC5)ncn4)c3c2)CC1` (centres unmarked) [Compound 174, 2-(2,6-dioxo-3-piperidyl)-5-[4-[[3-[[1-[6-[5-(1-methylcyclopropoxy)-2H-indazol-3-yl]pyrimidin-4-yl]-4-piperidyl]methyl]phenyl]methyl]-1-piperidyl]isoindoline-1,3-dione], the DC50 in assay [1] (setting [5]) and in assay [2] (setting [6]) was at least 100 nM throughout.
In assay [1] (setting [3]), `C[C@H]1CN(c2cc(-c3n[nH]c4ccc(OC5(C)CC5)cc34)ncn2)CCN1C[C@@H]1CCN(CC2CCN(c3ccc4c(c3)C(=O)N(C3CCC(=O)NC3=O)C4=O)CC2)C1` (stereo partly drawn) [Compound 113, 2-(2,6-dioxopiperidin-3-yl)-5-(4-{[(3R)-3-{[(2S)-2-methyl-4-{6-[5-(1-methylcyclopropoxy)-1H-indazol-3-yl]pyrimidin-4-yl}piperazin-1-yl]methyl}pyrrolidin-1-yl]methyl}piperidin-1-yl)-2,3-dihydro-1H-isoindole-1,3-dione] registered a half-maximal degradation concentration (DC50) below 10 nM and a maximal degradation (Dmax) below 50%. For the same molecule, in assay [2] (setting [4]), the maximal degradation (Dmax) lay in the range of 50 to 70% and the 50% degradation concentration (DC50) is below 10 nM.
With `C[C@H]1CN(c2cc(-c3n[nH]c4ccc(OC5(C)CC5)cc34)ncn2)CCN1CCN1CCN(C(=O)C2CCN(c3ccc4c(c3)C(=O)N(C3CCC(=O)NC3=O)C4=O)CC2)CC1` (stereo partly drawn) [Compound 56, 2-(2,6-dioxo-3-piperidyl)-5-[4-[4-[2-[(2S)-2-methyl-4-[6-[5-(1-methylcyclopropoxy)-2H-indazol-3-yl]pyrimidin-4-yl]piperazin-1-yl]ethyl]piperazine-1-carbonyl]-1-piperidyl]isoindoline-1,3-dione], in assay [1] (setting [3]), the DC50 was below 10 nM and the Dmax is at least 70%. Besides, in assay [2] (setting [4]), the greatest degradation seen (Dmax) is at least 70% and the 50% degradation concentration (DC50) was below 10 nM.
As for `CC1(Oc2ccc3[nH]nc(-c4ccnc(N5CCC(Cc6ccc(CC7CCN(c8ccc9c(c8)C(=O)N(C8CCC(=O)NC8=O)C9=O)CC7)cc6)CC5)c4)c3c2)CC1` (centres unmarked) [Compound 173, 2-(2,6-dioxo-3-piperidyl)-5-[4-[[4-[[1-[4-[5-(1-methylcyclopropoxy)-1H-indazol-3-yl]-2-pyridyl]-4-piperidyl]methyl]phenyl]methyl]-1-piperidyl]isoindoline-1,3-dione], the DC50 in assay [1] (setting [5]) and in assay [2] (setting [6]) was at least 100 nM throughout.
For the molecule `C[C@H]1CN(c2cc(-c3n[nH]c4ccc(OC5(C)CC5)cc34)ncn2)CCN1C[C@H]1CCN(CC2CCN(c3ccc4c(c3)C(=O)N(C3CCC(=O)NC3=O)C4=O)CC2)C1` (stereo partly drawn) [Compound 111, 2-(2,6-dioxo-3-piperidyl)-5-[4-[[(3S)-3-[[(2S)-2-methyl-4-[6-[5-(1-methylcyclopropoxy)-1H-indazol-3-yl]pyrimidin-4-yl]piperazin-1-yl]methyl]pyrrolidin-1-yl]methyl]-1-piperidyl]isoindoline-1,3-dione], in assay [2] (setting [4]), the Dmax is at least 70% and the 50% degradation concentration (DC50) was below 10 nM.
On the same counts, the results for `CC1(Oc2ccc3[nH]nc(-c4cc(N5CCC(CN6CCN(CC7CCN(c8cccc9c8C(=O)N(C8CCC(=O)NC8=O)C9=O)CC7)CC6)CC5)ncn4)c3c2)CC1` (centres unmarked) [Compound 146, 2-(2,6-dioxo-3-piperidyl)-4-[4-[[4-[[1-[6-[5-(1-methylcyclopropoxy)-2H-indazol-3-yl]pyrimidin-4-yl]-4-piperidyl]methyl]piperazin-1-yl]methyl]-1-piperidyl]isoindoline-1,3-dione] are 50 to 70% and 10 to 50 nM.
On the same counts, the results for `CC1(Oc2ccc3[nH]nc(-c4cc(N5CCC(CN6CC[C@H](CN7CCN(c8ccc9c(c8)C(=O)N(C8CCC(=O)NC8=O)C9=O)CC7)C6)CC5)ncn4)c3c2)CC1` (stereo partly drawn) [Compound 114, 2-(2,6-dioxo-3-piperidyl)-5-[4-[[(3S)-1-[[1-[6-[5-(1-methylcyclopropoxy)-1H-indazol-3-yl]pyrimidin-4-yl]-4-piperidyl]methyl]pyrrolidin-3-yl]methyl]piperazin-1-yl]isoindoline-1,3-dione] are 50 to 70% and below 10 nM.
